Results: patent US20050153930A1, “Inhibition of a novel calcium injury current that forms in nuerons during injury prevents neuronal cell death” (Robert J. DeLorenzo, priority 2000, published 2005)
Entries after “also recorded” stand apart in the source; their conditions may differ. Structures can show the parent of a compound that is named as a salt. Where two headings read alike, the source gives them in different places.

Key:
Assay type in all cases: cell-based, rat
[1] = test system: Injury Induced Calcium Channel (IICC); experiment: Voltage clamp current/voltage relationship of the injury induced calcium current
[2] = test system: hippocampal neurons in culture; experiment: Extended neuronal depolarization (END), membrane potential recording after excitotoxic glutamate exposure
[3] = test system: hippocampal neurons in culture; experiment: Neuronal cell death / survival after excitotoxic glutamate, aging or chronic glutamate injury; conditions: for neuronal cell death produced by excitotoxic glutamate exposure: acute excitotoxic injury, treatment after injury
[4] = test system: hippocampal neurons in culture; experiment: Intracellular calcium measurement (Indo-1 / Fura-FF) after excitotoxic glutamate exposure; conditions: for prolonged elevation of intra cellular calcium / entry of extra cellular calcium following injury: after excitotoxic glutamate exposure
[5] = neurons in END after excitotoxic glutamate, voltage steps -90 to +60 mV
[6] = applied in wash after 10 min 100 uM glutamate + 10 uM glycine
[7] = administered alone or in combination (without gadolinium) after the 10 minute glutamate exposure
[8] = chronic exposure during numerous minor chronic glutamate injuries
[9] = chronically administered during aging of neurons

For `N[C@@H](CCCP(=O)(O)O)C(=O)O` [APV, reference compound], the “effect on IICC current (calcium injury current)” value [1, 5] was “None of the glutamate receptor antagonists had any effect”.
In the case of `CC(C)COCC(CN(Cc1ccccc1)c1ccccc1)N1CCCC1` (stereo not shown) [Bepridil, reference compound], the “reversal of END” value [2, 6] is reported as “did not block END; also recorded: had no effect in reversing END” and the “effect on IICC current (calcium injury current)” value [1] is reported as “had no effect on blocking the observed calcium injury current”.
With `N#Cc1cc2[nH]c(=O)c(=O)[nH]c2cc1[N+](=O)[O-]` [CNQX, reference compound] the “effect on IICC current (calcium injury current)” value [1, 5] was “None of the glutamate receptor antagonists had any effect”.
In the case of `NS(=O)(=O)c1cccc2c1c([N+](=O)[O-])cc1nc(O)c(O)nc12` [NBQX, reference compound], the “effect on IICC current (calcium injury current)” value [1, 5] is reported as “None of the glutamate receptor antagonists had any effect”.
With `COc1ccc(CCCOC(Cn2ccnc2)c2ccc(OC)cc2)cc1` (stereo not shown) [SKF-96365, reference compound] the “reversal of END” value [2, 6] was “had no effect on reversing END”.
For `O=C(O)CCCCC1CCSS1` (stereo not drawn) [alpha-lipoate, 1,2-dithiolane-3-pentanoic acid], the neuronal survival [3, 7] was “had no significant effect on neuronal survival”.
With `CCCCCCCCCCCCCCCC(=O)OC[C@H](O)[C@H]1OC(=O)C(O)=C1O` [ascorbyl palmitate] the neuronal survival [3, 7] was “had no significant effect on neuronal survival”.
For `CC1=C(/C=C/C(C)=C/C=C/C(C)=C/C=C/C=C(C)/C=C/C=C(C)/C=C/C2=C(C)CCCC2(C)C)C(C)(C)CCC1` [beta-carotene], the neuronal survival [3, 7] was “had no significant effect on neuronal survival”.
With `[Cd]` [cadmium, reference compound] the “effect on IICC current (calcium injury current)” value [1] was “None of these calcium channel blockers had any effect”.
For `O=c1ccc2ccccc2o1` [coumarin], the neuronal survival [3, 7] was “had no significant effect on neuronal survival”.
With `[Cl][Gd]([Cl])[Cl]` [gadolinium, gadolinium chloride] the “neuronal cell death produced by excitotoxic glutamate exposure” value [3] was “effective in reversing”, the “neuronal cell death produced by excitotoxic glutamate exposure” value ([3]; listed as Gadolinium) was “prevention of delayed neuronal cell death” and the “life span of neurons / cell death associated with aging” value ([3]; administered chronically to neurons as they aged) was “effective in significantly increasing the life span of the neurons; also recorded: prolonged the life of the neurons”. The “neuronal cell death from chronic injury” value [3, 8] was “prevented the gradual production of neuronal cell death”, the neuronal cell death ([3]; excitotoxic injury in the presence of gadolinium) was “did not die” and the “prolonged elevation of intra cellular calcium / entry of extra cellular calcium following injury” value [4] was “able to block the extra cellular calcium entering from the bathing solution; also recorded: blocked by gadolinium”. For the same compound, the “prolonged elevation of intra cellular calcium / entry of extra cellular calcium following injury” value ([4]; listed as Gadolinium) was “effective in reversing the prolonged elevation of intra cellular calcium”, the “calcium entry and accumulation” value ([4]; chronic administration, chronic injury model) was “blocked calcium entry and accumulation” and the calcium entry [4, 9] was “blocked calcium entry”. For the same compound, the “time for intra cellular calcium to return to baseline levels” value ([4]; gadolinium in wash after excitotoxic glutamate, controls sustained at approximately 1-2 uM (indo-1)) was 30 to 40 min, the “reversal of END” value [2, 6] was “blocked by gadolinium; also recorded: effective in reversing END” and the “reversal of END” value ([2]; applied in wash after 10 min 100 uM glutamate + 10 uM glycine, listed as Gadolinium) was “as effective as zero calcium in reversing END; also recorded: able to reverse END as well as zero calcium”. For the same compound, the “development of END” value ([2]; chronic administration, chronic injury model (multiple minor glutamate exposures)) was “blocked calcium entry and accumulation and the development of END”, the “development of END” value [2, 9] was “blocked calcium entry and the development of END” and the “time for END to return to baseline levels” value ([2]; gadolinium in wash after excitotoxic glutamate, controls manifested END for greater than one hour) was 30 to 40 min. The “formation of IICCs” value [1, 8] was “blocked the formation of IICCs”, the “development of IICCs” value ([1]; given chronically to aging neurons) was “blocked the development of IICCs” and the “effect on IICC current (calcium injury current)” value [1, 5] was “inhibited the IICC current”. For the same compound, the “effect on IICC current (calcium injury current)” value ([1]; neurons in END after excitotoxic glutamate, voltage steps -90 to +60 mV, listed as Gadolinium) was “effectively inhibited the IICC current” and the “effect on IICC current (calcium injury current)” value ([1]; neurons in END after excitotoxic glutamate, voltage steps -90 to +60 mV, listed as gadolinium chloride) was “returns the neuron from END to baseline (control) conditions”.
`C[C@H]1C[C@@H]2[C@H]([C@@H](O)C[C@@]3(C)[C@H]2CC[C@]3(O)C(=O)CO)[C@@]2(C)C=CC(=O)C=C12` [methlyprednisolone] was tested, and the neuronal survival [3, 7] was “had no significant effect on neuronal survival”.
With `CCN(CC)Cc1nccn1-c1ccc([N+](=O)[O-])cc1C(=O)c1ccccc1Cl` [nizofenone] the neuronal survival [3, 7] was “had no significant effect on neuronal survival”.
In the case of `C[C@@H]1C[C@H]2[C@@H]3CCC4=CC(=O)C=C[C@]4(C)C3=CC[C@]2(C)[C@H]1C(=O)CN1CCN(c2cc(N3CCCC3)nc(N3CCCC3)n2)CC1` [tirilazad mesylate], the neuronal survival [3, 7] is reported as “had no significant effect on neuronal survival”.
In the case of `O=C1O[C@H]([C@@H](O)CO)C(O)=C1O` [vitamin C, ascorbic acid], the neuronal survival [3] is reported as “had no significant effect on neuronal survival”.
`Cc1c(C)c2c(c(C)c1O)CC[C@@](C)(CCC[C@H](C)CCC[C@H](C)CCCC(C)C)O2` [vitamin E, alpha-tocopherol] was tested, and the neuronal survival [3, 7] was “had no significant effect on neuronal survival”.
In the case of `[Cl-].[Cl-].[Zn+2]` [zinc chloride, reference compound], the “reversal of END” value ([2]; 5 uM, after excitotoxic glutamate exposure) is reported as “did not prevent END” and the “reversal of END” value ([2]; 5 uM, after excitotoxic glutamate exposure, listed as zinc) is reported as “had no effect in reversing END”.
In the case of dilauryl ascorbate, the neuronal survival [3] is reported as “had no significant effect on neuronal survival”.
In the case of heparin, the neuronal survival [3, 7] is reported as “had no significant effect on neuronal survival”.
